Measured values from ChEMBL document CHEMBL1139514, “Methyl substitution of 2-aminobicyclo[3.1.0]hexane 2,6-dicarboxylate (LY354740) determines functional activity at metabotropic glutamate receptors: identification of a subtype selective mGlu2 receptor agonist” (J Med Chem, 2005).

Tests used:
[1] = target: T1, Metabotropic glutamate receptor 2 (Homo sapiens, UniProt Q14416); test: Evaluation of the functional effect on cAMP responses in RGT cells expressing human mGlu2 receptor; type: cell-based
T1 sequence (Q14416 whole entry): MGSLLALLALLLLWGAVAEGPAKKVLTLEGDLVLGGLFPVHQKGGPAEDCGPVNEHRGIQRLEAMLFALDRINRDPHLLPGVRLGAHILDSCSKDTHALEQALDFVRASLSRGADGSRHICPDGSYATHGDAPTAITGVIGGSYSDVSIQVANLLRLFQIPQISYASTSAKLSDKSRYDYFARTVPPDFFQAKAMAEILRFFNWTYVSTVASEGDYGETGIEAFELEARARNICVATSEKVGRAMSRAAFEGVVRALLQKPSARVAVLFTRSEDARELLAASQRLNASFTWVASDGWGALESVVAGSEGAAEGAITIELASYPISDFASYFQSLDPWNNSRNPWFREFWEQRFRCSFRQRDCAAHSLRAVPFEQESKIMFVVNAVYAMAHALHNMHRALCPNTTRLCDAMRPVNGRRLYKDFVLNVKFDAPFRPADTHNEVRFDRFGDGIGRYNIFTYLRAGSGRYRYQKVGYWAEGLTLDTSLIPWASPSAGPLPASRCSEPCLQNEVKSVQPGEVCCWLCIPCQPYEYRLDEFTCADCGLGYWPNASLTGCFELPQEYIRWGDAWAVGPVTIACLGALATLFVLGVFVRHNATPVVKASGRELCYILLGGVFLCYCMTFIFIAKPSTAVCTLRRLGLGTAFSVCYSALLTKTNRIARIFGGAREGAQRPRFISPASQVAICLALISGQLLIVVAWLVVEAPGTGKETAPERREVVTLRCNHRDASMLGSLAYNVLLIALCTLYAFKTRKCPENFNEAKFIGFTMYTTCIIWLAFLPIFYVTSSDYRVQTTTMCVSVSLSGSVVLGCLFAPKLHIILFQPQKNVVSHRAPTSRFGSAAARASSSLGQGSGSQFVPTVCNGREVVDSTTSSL

[2] = target: T2, Metabotropic glutamate receptor 3 (Homo sapiens, UniProt Q14832); test: Displacement of [3H]-341495 binding to membranes expressing recombinant human Metabotropic glutamate receptor 3
T2 sequence (Q14832 whole entry): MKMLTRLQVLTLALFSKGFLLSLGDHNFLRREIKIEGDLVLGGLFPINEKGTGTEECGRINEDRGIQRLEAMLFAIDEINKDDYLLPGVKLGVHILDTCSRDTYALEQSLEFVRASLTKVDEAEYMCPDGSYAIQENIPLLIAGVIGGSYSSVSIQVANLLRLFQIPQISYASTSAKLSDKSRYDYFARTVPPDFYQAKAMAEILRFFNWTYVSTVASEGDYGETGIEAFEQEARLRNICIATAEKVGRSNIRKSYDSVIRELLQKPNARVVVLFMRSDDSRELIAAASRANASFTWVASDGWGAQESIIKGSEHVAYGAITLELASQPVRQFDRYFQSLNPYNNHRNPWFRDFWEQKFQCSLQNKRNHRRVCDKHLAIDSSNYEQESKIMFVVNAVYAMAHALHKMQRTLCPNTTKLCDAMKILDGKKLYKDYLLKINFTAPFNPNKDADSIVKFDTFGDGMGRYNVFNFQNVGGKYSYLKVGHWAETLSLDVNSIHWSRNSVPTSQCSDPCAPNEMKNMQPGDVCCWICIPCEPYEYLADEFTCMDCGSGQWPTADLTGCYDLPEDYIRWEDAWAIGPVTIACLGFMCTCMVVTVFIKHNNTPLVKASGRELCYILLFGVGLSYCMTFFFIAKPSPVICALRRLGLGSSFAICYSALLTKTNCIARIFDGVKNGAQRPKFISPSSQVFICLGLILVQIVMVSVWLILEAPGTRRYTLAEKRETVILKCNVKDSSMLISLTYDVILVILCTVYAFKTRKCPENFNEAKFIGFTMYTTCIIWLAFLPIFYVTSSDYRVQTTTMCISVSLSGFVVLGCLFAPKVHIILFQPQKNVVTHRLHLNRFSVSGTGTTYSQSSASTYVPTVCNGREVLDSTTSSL

[3] = target: T1, Metabotropic glutamate receptor 2; test: Displacement of [3H]-341495 binding to membranes expressing recombinant human Metabotropic glutamate receptor 2
[4] = target: T2, Metabotropic glutamate receptor 3; test: Evaluation of the functional effect on cAMP responses in RGT cells expressing human mGlu3 receptor; type: cell-based

Row | Compound | IC50 [1] | Ki [2] | EC50 [1] | Ki [3] | EC50 [4] | IC50 [4]
1 | C[C@@H]1C[C@H]2[C@H](C(=O)O)[C@H]2[C@]1(N)C(=O)O | 1750 nM | 146 nM | – | – | – | –
2 | C[C@H]1C[C@](N)(C(=O)O)[C@H]2[C@H](C(=O)O)[C@H]21 | – | > 100000 nM | > 100000 nM | > 100000 nM | > 100000 nM | –
3 | C[C@H]1C[C@@](N)(C(=O)O)[C@@H]2[C@@H](C(=O)O)[C@@H]21 | – | 511 nM | 45 nM | – | 34 nM | –
4 | N[C@@]1(C(=O)O)CC[C@H]2[C@H](C(=O)O)[C@H]21 | – | – | 10 nM | 74 nM | – | –
5 | C[C@@H]1C[C@@](N)(C(=O)O)[C@@H]2[C@@H](C(=O)O)[C@@H]21 (stereo in doubt; 13) | – | 570 nM | 397 nM | 409 nM | – | 2940 nM
6 | C[C@@H]1C[C@@](N)(C(=O)O)[C@@H]2[C@@H](C(=O)O)[C@@H]21 (stereo in doubt; (+)-13) | – | 302 nM | 161 nM | 165 nM | – | 1050 nM
